Assays:
[1] = tested on: Neutrophil; assay: Reduction of chemotaxis in human neutrophils assessed as inhibition of IL8-induced cell migration pretreated 10 mins before IL8 challenge; format: functional, cell-based
[2] = tested on: Mus musculus; assay: Antiinflammatory activity against zymosan-induced peritonitis in Swiss mouse assessed as inhibition of granulocyte infiltration into peritoneal cavity at 100 mg/kg, po administered 1 hr before zymosan challenge measured after 4 hrs; format: functional
[3] = tested on: Neutrophil; assay: Reduction of chemotaxis in human neutrophils assessed as inhibition of fMLP-OMe-induced cell migration pretreated 10 mins before fMLP-OMe challenge; format: functional, cell-based
[4] = Cytotoxicity against human neutrophils assessed as LDH release; format: cell-based; set-up: concentration or dose not given beside the values; settings: neutrophil
[5] = tested on: Mus musculus; assay: Antiinflammatory activity against zymosan-induced peritonitis in Swiss mouse assessed as protein concentration at 50 mg/kg, po administered 1 hr before zymosan challenge by spectrophotometry; format: functional
[6] = tested on: Mus musculus; assay: Antiinflammatory activity against zymosan-induced peritonitis in Swiss mouse assessed as inhibition of granulocyte infiltration into peritoneal cavity at 50 mg/kg, po administered 1 hr before zymosan challenge measured after 4 hrs; format: functional; set-up: scale not given: the % may be the effect or the level left
[7] = tested on: Neutrophil; assay: Inhibition of chemotaxis in human neutrophils assessed as reduction of fMLP-OMe-induced cell migration at 10 uM relative to control; format: functional
[8] = tested on: Mus musculus; assay: Antiinflammatory activity against zymosan-induced peritonitis in Swiss mouse assessed as monocyte and lymphocyte content in peritoneal cavity at 50 mg/kg, po administered 1 hr before zymosan challenge measured after 4 hrs; format: functional
[9] = tested on: Mus musculus; assay: Antiinflammatory activity against zymosan-induced peritonitis in Swiss mouse assessed as peritoneal protein concentration at 3 mg/kg, po administered 1 hr before zymosan challenge by spectrophotometry; format: functional
[10] = tested on: Mus musculus; assay: Antiinflammatory activity against zymosan-induced peritonitis in Swiss mouse assessed as granulocyte content in peritoneal cavity lavage at 3 mg/kg, po administered 1 hr before zymosan challenge measured after 4 hrs; format: functional
[11] = tested on: Mus musculus; assay: Antiinflammatory activity against zymosan-induced peritonitis in Swiss mouse assessed as monocyte and lymphocyte content in peritoneal cavity lavage at 3 mg/kg, po administered 1 hr before zymosan challenge measured after 4 hrs; format: functional
[12] = tested on: Mus musculus; assay: Antiinflammatory activity against zymosan-induced peritonitis in Swiss mouse assessed as inhibition of granulocyte infiltration into peritoneal cavity at 3 mg/kg, po administered 1 hr before zymosan challenge measured after 4 hrs; format: functional; set-up: scale not given: the % may be the effect or the level left

`CCOC(=O)c1cnn(CC(O)c2ccccc2)c1NC(=O)NCc1ccccc1` (stereo not drawn) showed an IC50 [1] of 10000 pM.

With `CCOC(=O)c1cnn(CC(O)c2ccccc2)c1NC(=O)N1CCN(Cc2ccccc2)CC1` (stereo not drawn) the IC50 [1] was 14000 pM.

Compound `CCOC(=O)c1cnn(CC(O)c2ccccc2)c1NC(=O)Nc1ccccc1` (stereo not drawn) has an IC50 [1] of 45000 pM.

Work on `CCOC(=O)c1cnn(CC(O)c2ccccc2)c1NC(=O)Nc1cccc(F)c1` (stereo not drawn) yielded an inhibition in vivo at 100 mg/kg [2] of 33%.

`CCOC(=O)c1cnn(CC(O)c2ccccc2)c1NC(=O)NC(C)C` (stereo not drawn) gave an IC50 [1] of 55000 pM.

With `CCOC(=O)c1cnn(CC(O)CC)c1NC(=O)Nc1ccc(F)cc1` (stereo not drawn) the IC50 ([3]; read-out: IC50) was 3.2 nM, the IC50 [1] was 1900 pM and the Activity [4] was < 3%.

With `CCOC(=O)c1cnn(CC(O)c2ccccc2)c1NC(=O)Nc1cccc2ccccc12` (stereo not drawn) the IC50 ([3]; read-out: IC50) was 7.8 nM and the Activity [4] was < 3%.

For `CCOC(=O)c1cnn(C)c1NC(=O)NCc1ccccc1`, the IC50 ([3]; read-out: IC50) was 18 nM, the IC50 [1] was 1300 pM and the Activity [4] was < 3%.

With `CCOC(=O)c1cnn(CC(O)CC)c1NC(=O)N1CCN(Cc2ccccc2)CC1` (stereo not drawn) the IC50 ([3]; read-out: IC50) was 2000 nM, the IC50 [1] was 0.08 pM and the Activity [4] was < 3%.

For `CCOC(=O)c1cnn(CC(O)CC)c1NC(=O)Nc1cccc(F)c1` (stereo not drawn), the IC50 ([3]; read-out: IC50) was 0.19 nM, the IC50 [1] was 360 pM and the Activity [4] was < 3%.

With `CCOC(=O)c1cnn(CC(O)CC)c1NC(=O)Nc1cccc2ccccc12` (stereo not drawn) the IC50 ([3]; read-out: IC50) was 12 nM, the IC50 [1] was 9600 pM and the Activity [4] was < 3%.

Compound `CCOC(=O)c1cnn(CC(C)O)c1NC(=O)Nc1ccccc1F` (stereo not drawn) has an IC50 ([3]; read-out: IC50) of 100 nM, an IC50 [1] of 0.55 pM and a protein concentration [5] of 2.62 µg/mL. The Activity [4] was < 3% and the Activity [6] was 34%.

With `CCCC(O)Cn1ncc(C(=O)OCC)c1NC(=O)N1CCN(Cc2ccccc2)CC1` (stereo not drawn) the IC50 ([3]; read-out: IC50) was 1.1 nM, the IC50 [1] was 90 pM and the Activity [4] was < 3%.

For `CCOC(=O)c1cnn(CC(C)O)c1NC(=O)NC(C)C` (stereo not drawn), the IC50 ([3]; read-out: IC50) was 90 nM, the IC50 [1] was 0.82 pM and the Activity [4] was < 3%.

With `CCOC(=O)c1cnn(CC(C)O)c1NC(=O)NCc1ccccc1` (stereo not drawn) the IC50 ([3]; read-out: IC50) was 15 nM, the IC50 [1] was 0.54 pM and the Activity [4] was < 3%.

In the case of `CCOC(=O)c1cnn(CC(C)O)c1NC(=O)N1CCN(Cc2ccccc2)CC1` (stereo not drawn), the IC50 ([3]; read-out: IC50) is reported as > 10 nM, the IC50 [1] is reported as 0.99 pM and the inhibition at 10 µM [7] is reported as 63%. For the same compound, the Activity [4] was < 3%.

For `CCOC(=O)c1cnn(CC(C)O)c1NC(=O)Nc1ccc(F)cc1` (stereo not drawn), the IC50 ([3]; read-out: IC50) was > 10 nM, the IC50 [1] was 200 pM and the inhibition at 10 µM [7] was 55%. For the same compound, the Activity [4] was < 3%.

In the case of `CCOC(=O)c1cnn(CC(C)O)c1NC(=O)Nc1cccc2ccccc12` (stereo not drawn), the IC50 ([3]; read-out: IC50) is reported as 9.8 nM, the IC50 [1] is reported as 0.97 pM and the Activity [4] is reported as < 3%.

In the case of `CCOC(=O)c1cnn(CC(O)CC)c1NC(=O)NC(C)C` (stereo not drawn), the IC50 ([3]; read-out: IC50) is reported as > 10 nM, the inhibition at 10 µM [7] is reported as 52% and the Activity [4] is reported as < 3%.

For `CCOC(=O)c1cnn(CC(O)CC)c1NC(=O)NCc1ccccc1` (stereo not drawn), the IC50 ([3]; read-out: IC50) was > 10 nM, the inhibition at 10 µM [7] was 54% and the Activity [4] was < 3%.

With `CCOC(=O)c1cnn(CC(O)CC)c1NC(=O)Nc1ccccc1F` (stereo not drawn) the IC50 ([3]; read-out: IC50) was 120 nM and the Activity [4] was < 3%.

In the case of `CCCC(O)Cn1ncc(C(=O)OCC)c1NC(=O)NCc1ccccc1` (stereo not drawn), the IC50 ([3]; read-out: IC50) is reported as 0.43 nM and the Activity [4] is reported as < 3%.

With `CCCC(O)Cn1ncc(C(=O)OCC)c1NC(=O)NC(C)C` (stereo not drawn) the IC50 ([3]; read-out: IC50) was 20 nM, the IC50 [1] was 1000 pM and the Activity [4] was < 3%.

For `CCOC(=O)c1cnn(C)c1NC(=O)NC(C)C`, the IC50 ([3]; read-out: IC50) was 77 nM, the IC50 [1] was 1.8 pM and the Activity [4] was < 3%.

For `CCOC(=O)c1cnn(CC(C)O)c1NC(=O)Nc1cccc(F)c1` (stereo not drawn), the IC50 ([3]; read-out: IC50) was > 10 nM, the IC50 [1] was 0.7 pM and the inhibition at 10 µM [7] was 60%. For the same compound, the Activity [5] was 2.68%, the Activity [8] was 23% and the Activity [4] was < 3%. For the same compound, the Activity [6] was 21%.

For `CCOC(=O)c1cnn(C)c1NC(=O)N1CCN(Cc2ccccc2)CC1`, the IC50 ([3]; read-out: IC50) was 150 nM, the IC50 [1] was 54.6 pM and the Activity [4] was < 3%.

`C/C=C/C[C@@H](C)[C@@H](O)[C@H]1C(=O)N[C@@H](CC)C(=O)N(C)CC(=O)N(C)[C@@H](CC(C)C)C(=O)N[C@@H](C(C)C)C(=O)N(C)[C@@H](CC(C)C)C(=O)N[C@@H](C)C(=O)N[C@H](C)C(=O)N(C)[C@@H](CC(C)C)C(=O)N(C)[C@@H](CC(C)C)C(=O)N(C)[C@@H](C(C)C)C(=O)N1C` [CYCLOSPORINE] gave an IC50 [3] of 0.047 nM.

`C[C@@H]1C[C@H]2[C@@H]3CCC4=CC(=O)C=C[C@]4(C)[C@@]3(F)[C@@H](O)C[C@]2(C)[C@@]1(O)C(=O)CO` [DEXAMETHASONE] gave a protein concentration [9] of 1.75 µg/mL, an Activity [10] of 81% and an Activity [11] of 20%. For the same compound, the Activity [12] was 35%.
